Experimental data published in patent US7601332B2, “Vitamin receptor binding drug delivery conjugates” (priority 2003, dated 2009).

Columns and labels:
[1] = Toxicity based on animal body weights in tumor-bearing mice; assay type: in vivo; settings: Balb/c mice, s.c. M109 tumors, i.v. twice a week for 4 weeks, 2-10 μmol/kg
Experimental: The anti-tumor activity of the compounds of Examples 9b (EC111) and 9c (EC112), where the drug is daunorubicin, when administered intravenously (i.v.) to tumor-bearing animals, was evaluated in Balb/c mice bearing subcutaneous M109 tumors. Four days post tumor inoculation in the subcutis of the right axilla with 1×10^6 M109 cells, mice (5/group) were injected i.v. twice a week for 4 weeks with 2-10 μmol/kg of the compound of either Example 9b or Example 9c or with unconjugated daunorubicin or PBS. Tumor growth was measured using calipers at 3-day or 4-day intervals in each treatment group. Tumor volumes were calculated using the equation V=a×b^2/2, where “a” is the length of the tumor and “b” is the width expressed in millimeters. Animal body weight was also determined at 3-day or 4-day intervals.
The protocol was as described in Example 42 except that the compound of Example 10a (EC105) was used, where the drug is bis-indolyl-seco-CBI. The compound of Example 10a was injected at a dose of 0.3 μmol/kg. Also, two subcutaneous tumor models were tested including the M109 model (folate receptor-positive) and the 4T1 model (folate receptor-negative), and in some animals a 67-fold excess of free folate (20 μmol/kg; FA) was coinjected with the conjugate (i.e., the compound of Example 10a).

[2] = test system: M109 tumors (folate receptor-positive); test: Inhibition of subcutaneous M109 tumor growth in mice; assay type: in vivo; settings: Balb/c mice, s.c. M109 tumors, i.v. twice a week for 4 weeks, 2-10 μmol/kg
Experimental: The anti-tumor activity of the compounds of Examples 9b (EC111) and 9c (EC112), where the drug is daunorubicin, when administered intravenously (i.v.) to tumor-bearing animals, was evaluated in Balb/c mice bearing subcutaneous M109 tumors. Four days post tumor inoculation in the subcutis of the right axilla with 1×10^6 M109 cells, mice (5/group) were injected i.v. twice a week for 4 weeks with 2-10 μmol/kg of the compound of either Example 9b or Example 9c or with unconjugated daunorubicin or PBS. Tumor growth was measured using calipers at 3-day or 4-day intervals in each treatment group. Tumor volumes were calculated using the equation V=a×b^2/2, where “a” is the length of the tumor and “b” is the width expressed in millimeters. Animal body weight was also determined at 3-day or 4-day intervals. […]
The anti-tumor activity of the compound of Example 16b (EC145), where the drug is deacetylvinblastine monohydrazide, when administered intravenously (i.v.) to tumor-bearing animals, was evaluated in Balb/c mice bearing subcutaneous M109 tumors. […] Tumor growth was measured using calipers at 2-day or 3-day intervals in each treatment group. Tumor volumes were calculated using the equation V=a×b^2/2, where “a” is the length of the tumor and “b” is the width expressed in millimeters. […]

SMILES	toxicity based on animal body weights [1]	anti-tumor activity (growth of M109 tumors) [2]
COc1cccc2c1C(=O)c1c(O)c3c(c(O)c1C2=O)C[C@@](O)(/C(CO)=N\NC(=O)CCN1C(=O)CC(SC[C@H](NC(=O)CC[C@H](NC(=O)c2ccc(NCc4cnc5nc(N)[nH]c(=O)c5n4)cc2)C(=O)O)C(=O)O)C1=O)C[C@@H]3O[C@H]1CC(N)[C@H](O)C(C)O1 (stereo partly shown) [Example 9c]	no apparent toxicity	effective in delaying the growth of M109 tumors
COc1cccc2c1C(=O)c1c(O)c3c(c(O)c1C2=O)C[C@@](O)(C(=O)CO)C[C@@H]3O[C@H]1C[C@H](N)[C@H](O)[C@H](C)O1 [doxorubicin]	concomitant toxicity	provided an anti-tumor response
